Experimental data: US6926763B2, “Purine and isosteric antibacterial compounds” (GLSynthesis, Inc., priority 2002, dated 2005)
In brackets after ≈: the same amount, converted by molar mass.

Legend:
in vitro = in vitro ADME; details: human, Caco-2
Source text: Table 2 summarizes the results of cell membrane permeability assays of representative compounds of the invention. The assay utilizes CaCo2 cell culture monolayers, described by Artursson and Kalsson, Biochem. Biophys. Res.

Enterococcus fecium = assay: Inhibition of bacterial growth (agar plate MIC), E. fecium; format: cell-based; details: Enterococcus; agar plates, 37° C., 24 hours
Experimental: (§1) Antimicrobial efficacy may be determined by standard methods of microbial culture in growth medium or on plates of agar supplemented with appropriate growth media. For example, microbes, e.g., mycoplasmata or Gram-positive or Gram-negative bacteria, are grown in the presence of serial dilutions of compounds in an appropriate vehicle, and, after a suitable period of growth, the microbial density is measured by visual or instrumental means. The concentration of compound at which no growth occurs is the minimum inhibitory concentration (MIC) of the compound. Test compounds with an appropriate level of growth inhibition are good candidate therapeutics for further evaluation.
(§2) Each compound was assayed against a panel of Gram-positive Bacilli, Enterococci, and Staphylococci, and Gram-negative Escherichia coli, grown in appropriate plate media solidified with 1.3% agar-agar. […] One tenth mL of diluted bacteria containing 500-1000 colony-forming units (CFU) were plated and spread, and the plates were incubated at 37° C. for 24 hours. MIC (minimum inhibitory concentration) was equivalent to the lowest concentration at which growth, i.e. colony formation, was not observed.

Enterococcus fecalis = assay: Inhibition of bacterial growth (agar plate MIC), E. fecalis; format: cell-based; details: Enterococcus; agar plates, 37° C., 24 hours
Experimental: as §1, §2

MRSA (B42876) = assay: Inhibition of bacterial growth (agar plate MIC), MRSA (B42876); format: cell-based, methicillin-resistant S.a.; details: Staphylococcus aureus, MRSA; agar plates, 37° C., 24 hours
Experimental: as §1, §2

Bacillus subtilis = assay: Inhibition of bacterial growth (agar plate MIC), B.s.; format: cell-based; details: Bacillus subtilis; agar plates, 37° C., 24 hours
Experimental: as §1, §2

B.s. pol IIIE = B.s. pol IIIE (Bacillus subtilis, UniProt O34623); assay: biochemical; format: biochemical
Chain of B.s. pol IIIE (O34623 whole entry): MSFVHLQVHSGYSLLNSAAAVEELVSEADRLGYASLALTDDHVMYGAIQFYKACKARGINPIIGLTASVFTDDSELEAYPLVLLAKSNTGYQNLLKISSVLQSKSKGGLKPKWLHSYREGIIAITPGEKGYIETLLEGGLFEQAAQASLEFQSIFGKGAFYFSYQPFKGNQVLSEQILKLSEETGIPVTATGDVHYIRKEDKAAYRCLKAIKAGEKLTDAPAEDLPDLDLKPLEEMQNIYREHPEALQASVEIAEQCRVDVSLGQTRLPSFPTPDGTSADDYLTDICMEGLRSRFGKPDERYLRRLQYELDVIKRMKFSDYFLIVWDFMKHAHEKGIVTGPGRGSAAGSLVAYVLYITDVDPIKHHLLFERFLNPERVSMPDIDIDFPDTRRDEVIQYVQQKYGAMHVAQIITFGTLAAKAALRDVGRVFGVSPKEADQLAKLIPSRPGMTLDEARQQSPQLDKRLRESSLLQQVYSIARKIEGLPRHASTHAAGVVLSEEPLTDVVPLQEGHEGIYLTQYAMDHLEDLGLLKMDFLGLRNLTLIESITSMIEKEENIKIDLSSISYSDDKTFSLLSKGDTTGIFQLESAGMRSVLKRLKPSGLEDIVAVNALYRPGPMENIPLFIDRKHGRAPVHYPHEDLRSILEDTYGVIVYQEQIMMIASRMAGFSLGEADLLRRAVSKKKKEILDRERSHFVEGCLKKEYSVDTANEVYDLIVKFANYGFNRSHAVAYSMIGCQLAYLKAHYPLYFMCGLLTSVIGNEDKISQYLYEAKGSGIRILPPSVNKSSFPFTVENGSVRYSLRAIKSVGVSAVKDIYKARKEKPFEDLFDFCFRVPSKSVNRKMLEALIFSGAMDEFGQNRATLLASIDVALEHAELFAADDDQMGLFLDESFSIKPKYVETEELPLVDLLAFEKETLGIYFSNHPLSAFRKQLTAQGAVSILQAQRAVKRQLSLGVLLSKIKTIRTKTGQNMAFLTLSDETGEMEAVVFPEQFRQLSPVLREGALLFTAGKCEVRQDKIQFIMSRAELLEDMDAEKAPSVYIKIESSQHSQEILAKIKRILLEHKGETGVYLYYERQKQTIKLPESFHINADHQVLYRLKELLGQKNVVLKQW
Experimental: (§3) The ability of a test compound to inhibit the activity of DNA pol IIIC or pol IIIE enzymes can be tested by using a DNA polymerase assay as described, for example, in Barnes and Brown, Nucl. […] This rapid screening method can use natural or recombinant DNA pol III enzymes in a standard DNA polymerase activity assay. By including a test compound in a side-by-side assay with a control, the effect of the test compound on polymerase activity can be assessed.
(§4) DNA pol III activity was assayed as described in Barnes et al., Nucl.
(§5) Purified pol IIIC or pol IIIE was added to a buffered solution containing Mg^2+, DTT, glycerol, nicked calf thymus DNA, saturating concentrations of dATP, dCTP, dTTP and [^3H]-dTTP. Reaction mixtures were incubated at 30° C. for 10 min, quenched and filtered, and radioactivity in the acid-insoluble material measured by scintillation counting. Experiments were done in triplicate. Inhibitors were assayed by addition of several dilutions of a stock solution of inhibitor (DMSO or water, depending on solubility) before enzyme addition. […] The truncated assay, i.e., exclusion of the competitive substrate dGTP allows for the direct determination of apparent inhibitor constants (Ki) in this assay system.

B.s. pol IIIC = B.s. pol IIIC (Bacillus subtilis, UniProt P13267); assay: biochemical; format: biochemical
Chain of B.s. pol IIIC (P13267 whole entry): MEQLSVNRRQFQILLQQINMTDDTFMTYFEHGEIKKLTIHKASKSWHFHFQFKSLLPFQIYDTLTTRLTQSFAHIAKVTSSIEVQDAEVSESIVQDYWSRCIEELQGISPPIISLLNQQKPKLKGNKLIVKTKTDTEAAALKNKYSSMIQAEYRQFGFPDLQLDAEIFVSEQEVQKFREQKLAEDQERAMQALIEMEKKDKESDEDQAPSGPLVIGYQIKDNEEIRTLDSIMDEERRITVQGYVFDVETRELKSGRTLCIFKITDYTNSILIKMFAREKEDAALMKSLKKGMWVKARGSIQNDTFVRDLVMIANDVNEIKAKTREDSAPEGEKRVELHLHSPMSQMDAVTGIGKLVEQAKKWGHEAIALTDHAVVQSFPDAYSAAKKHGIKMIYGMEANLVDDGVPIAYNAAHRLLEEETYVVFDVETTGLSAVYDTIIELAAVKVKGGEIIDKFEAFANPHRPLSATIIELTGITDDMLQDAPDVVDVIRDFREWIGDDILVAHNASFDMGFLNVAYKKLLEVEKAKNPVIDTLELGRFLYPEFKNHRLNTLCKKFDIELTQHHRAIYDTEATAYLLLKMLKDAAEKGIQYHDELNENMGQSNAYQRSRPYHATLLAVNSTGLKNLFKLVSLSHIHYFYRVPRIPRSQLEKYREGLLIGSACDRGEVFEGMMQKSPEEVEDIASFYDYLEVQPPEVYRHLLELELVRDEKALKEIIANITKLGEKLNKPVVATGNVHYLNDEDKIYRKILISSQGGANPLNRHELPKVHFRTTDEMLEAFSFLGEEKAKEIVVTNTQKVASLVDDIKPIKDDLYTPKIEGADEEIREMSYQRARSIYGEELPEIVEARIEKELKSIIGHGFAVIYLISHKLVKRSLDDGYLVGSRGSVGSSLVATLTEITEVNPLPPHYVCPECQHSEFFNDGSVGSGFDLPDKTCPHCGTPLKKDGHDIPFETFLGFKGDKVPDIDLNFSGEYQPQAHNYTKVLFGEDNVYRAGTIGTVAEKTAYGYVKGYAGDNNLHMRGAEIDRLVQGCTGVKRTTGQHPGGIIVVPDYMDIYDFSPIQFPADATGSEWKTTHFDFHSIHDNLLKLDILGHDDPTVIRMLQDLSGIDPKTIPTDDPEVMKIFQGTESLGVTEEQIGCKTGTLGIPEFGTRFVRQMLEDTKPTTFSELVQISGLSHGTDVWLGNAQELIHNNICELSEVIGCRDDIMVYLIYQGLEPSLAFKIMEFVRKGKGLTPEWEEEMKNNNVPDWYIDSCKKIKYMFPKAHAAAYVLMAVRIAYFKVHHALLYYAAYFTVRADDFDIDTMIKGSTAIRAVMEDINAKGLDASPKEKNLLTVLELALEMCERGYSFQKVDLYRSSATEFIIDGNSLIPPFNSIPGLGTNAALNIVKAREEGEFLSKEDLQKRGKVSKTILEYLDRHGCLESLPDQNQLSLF
Experimental: as §3, §4, §5

E.c. pol IIIE = E.c. pol IIIE (Escherichia coli, UniProt P10443); assay: biochemical
Chain of E.c. pol IIIE (P10443 whole entry): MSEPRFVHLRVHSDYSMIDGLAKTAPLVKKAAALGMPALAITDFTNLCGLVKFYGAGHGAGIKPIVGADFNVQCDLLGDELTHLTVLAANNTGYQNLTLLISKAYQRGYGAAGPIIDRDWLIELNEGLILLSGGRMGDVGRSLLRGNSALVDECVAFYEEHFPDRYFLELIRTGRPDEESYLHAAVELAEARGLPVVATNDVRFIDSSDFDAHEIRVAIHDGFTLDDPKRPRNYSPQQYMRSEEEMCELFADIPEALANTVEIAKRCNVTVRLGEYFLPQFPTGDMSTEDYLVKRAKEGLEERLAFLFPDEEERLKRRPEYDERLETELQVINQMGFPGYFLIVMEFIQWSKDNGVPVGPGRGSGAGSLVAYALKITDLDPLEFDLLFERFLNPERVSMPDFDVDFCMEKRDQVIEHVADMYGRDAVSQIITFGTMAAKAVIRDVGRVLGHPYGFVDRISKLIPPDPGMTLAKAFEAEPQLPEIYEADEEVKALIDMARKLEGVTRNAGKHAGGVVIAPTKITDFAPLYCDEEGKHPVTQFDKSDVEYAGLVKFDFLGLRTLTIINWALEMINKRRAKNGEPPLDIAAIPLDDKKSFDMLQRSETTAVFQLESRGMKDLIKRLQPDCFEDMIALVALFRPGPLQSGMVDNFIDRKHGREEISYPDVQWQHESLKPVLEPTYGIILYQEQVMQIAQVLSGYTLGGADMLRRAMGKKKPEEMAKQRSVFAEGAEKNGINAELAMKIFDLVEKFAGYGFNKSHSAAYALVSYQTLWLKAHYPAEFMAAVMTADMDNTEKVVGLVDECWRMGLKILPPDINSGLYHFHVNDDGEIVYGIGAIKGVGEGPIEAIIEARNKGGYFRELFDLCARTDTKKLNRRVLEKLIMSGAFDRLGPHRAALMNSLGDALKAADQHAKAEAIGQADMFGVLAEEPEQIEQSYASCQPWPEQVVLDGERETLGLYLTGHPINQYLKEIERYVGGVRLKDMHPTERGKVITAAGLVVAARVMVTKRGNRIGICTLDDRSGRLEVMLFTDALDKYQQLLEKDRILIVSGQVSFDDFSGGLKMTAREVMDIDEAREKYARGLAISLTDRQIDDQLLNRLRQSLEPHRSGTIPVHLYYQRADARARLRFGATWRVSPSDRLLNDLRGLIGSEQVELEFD
Experimental: as §3, §4, §5

Structure (SMILES) | Papp (in vitro) [×10⁻⁶ cm/s] | MIC (Enterococcus fecium) [µg/mL] | MIC (Enterococcus fecalis) [µg/mL] | MIC (MRSA (B42876)) [µg/mL] | MIC (Bacillus subtilis) [µg/mL] | Ki (B.s. pol IIIE) [nM] | Ki (B.s. pol IIIC) [nM] | Ki, E.c. pol IIIE (E.c. pol IIIE; truncated assay without dGTP, apparent Ki) | Ki (E.c. pol IIIE) [nM]
CCc1cc(Nc2cc3ncn(CCCCCOC)c3c(=O)[nH]2)ccc1C [Compound 17, 2-(3-Ethyl-4-methylphenylamino)-6-oxo-7-(5-methoxypentyl)-3-deazapurine] | 39.6 | 2.5 (≈ 6.78 µM) | > 80 | 2.5 (≈ 6.78 µM) | 1.25 (≈ 3.39 µM) | 490000 | 690 | inact | –
COCCCCCn1cnc2cc(NCc3ccc(Cl)c(Cl)c3)[nH]c(=O)c21 [Compound 3, 2-(3,4-Dichlorobenzylamino)-6-oxo-7-(5-methoxypentyl)-3-deazapurine] | 13.8 | 1.25 (≈ 3.05 µM) | 5 (≈ 12.2 µM) | 2.5 (≈ 6.11 µM) | – | 420 | 160 | – | 81000
